Measurements: paper PMC5860131, “Identification of natural products as novel ligands for the human 5-HT2C receptor” (Biophysics Reports, 2018)

Assays:
Type in all cases: binding
5-HT2C receptor [1] = target: T1, 5-HT2C receptor (Homo sapiens, UniProt P28335, DEL255-298/G251D/H250E/H252N/INS299[…]/L248D/M247A/M300L/T253W)
T1 construct: the N- and C-terminals were truncated by 39 and 65 residues, respectively; FLAG (N); PreScission protease site + 10× His (C); made in house; host or cells: Spodoptera frugiperda (Sf9), baculovirus
T1 sequence (P28335 with tags, fused parts or gaps with the stated changes limits assumed): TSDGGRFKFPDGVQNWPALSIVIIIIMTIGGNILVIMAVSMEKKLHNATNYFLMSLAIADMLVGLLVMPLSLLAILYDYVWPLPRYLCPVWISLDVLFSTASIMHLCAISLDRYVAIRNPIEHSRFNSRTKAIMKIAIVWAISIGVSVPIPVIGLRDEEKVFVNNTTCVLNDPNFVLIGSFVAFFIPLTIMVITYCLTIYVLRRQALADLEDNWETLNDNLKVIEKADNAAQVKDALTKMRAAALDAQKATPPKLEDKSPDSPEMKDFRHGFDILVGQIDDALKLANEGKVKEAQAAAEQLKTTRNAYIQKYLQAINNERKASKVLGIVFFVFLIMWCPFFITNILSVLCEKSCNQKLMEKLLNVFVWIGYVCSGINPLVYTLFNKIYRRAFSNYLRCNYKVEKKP

[2] = target: T2, 5-HT2C receptor G218^5.42A (Homo sapiens, UniProt P28335, DEL255-298/G218A/G251D/H250E/H252N/INS299[…]/L248D/M247A/M300L/T253W); test: Affinity MS assay, 5-HT2C mutant G218A
T2 construct: the N- and C-terminals were truncated by 39 and 65 residues, respectively; PreScission protease site + 10× His (C); made in house
T2 sequence (P28335 with tags, fused parts or gaps with the stated changes): as the sequence (P28335 with tags, fused parts or gaps with the stated changes limits assumed) above, with G179A counted along it
Excerpt: (§1) Based on the binding poses predicted by molecular docking, single-point mutations were designed to test their impact on ligand binding. Mutations of several residues include the highly conserved Asp134^3.32, which is known to cause 5-HT1B or 5-HT2B receptors to abolish the monoamine ligand binding as reported in the literature (Wang et al. [2013]). In this study, residues forming hydrophobic interactions with the substitution groups on the aporphine scaffold of (–)-crebanine (1) were selected for mutation as well and they are Thr139^3.37, Gly218^5.42, Ala222^5.46, and Leu209^ECL2. Effects of those mutations were tested with the CPM assay and the affinity MS assay (Table 2). In the affinity MS experiment, relative ligand-binding capacity (represented by binding %) to different mutants and the wild-type receptor was compared. Among the six mutations tested, five of them reduced the binding of (–)-crebanine (1) by more than 40% relative to binding to the wild-type receptor, displaying the importance of hydrophobic interactions. […]
Four experimental replicates were prepared for each pair of the test ligand and the negative control. […] S/C ratios refer to the ratio of MS response of a specific ligand detected in the 5-HT2C incubation sample versus the control. […]

[3] = target: T2, 5-HT2C receptor G218^5.42A; test: CPM thermal stability assay, 5-HT2C mutant G218A
Excerpt: as §1, with “compared.” for “compared. Among the six mutations tested, five of them reduced the binding of (–)-crebanine (1) by more than 40% relative to binding to the wild-type receptor, displaying the importance of hydrophobic interactions.”
(§2) Purified 5-HT2C receptor protein was thoroughly mixed with CPM fluorescent dyes. […] Fluorescence signals, wavelength 387 nm (excitation) and 463 nm (emission), were monitored (Alexandrov et al. [2008]). […] The thermal denaturation of the samples was evaluated using the scatter plot curve, where the horizontal coordinates represented temperature and the vertical coordinates indicated normalized fluorescence intensity recorded for a particular temperature. […]

[4] = target: T3, 5-HT2C receptor T139^3.37A (Homo sapiens, UniProt P28335, DEL255-298/G251D/H250E/H252N/INS299[…]/L248D/M247A/M300L/T139A/T253W); test: CPM thermal stability assay, 5-HT2C mutant T139A; details: mutant T139^3.37A, n = 2
T3 construct: the N- and C-terminals were truncated by 39 and 65 residues, respectively; PreScission protease site + 10× His (C); made in house
T3 sequence (P28335 with tags, fused parts or gaps with the stated changes): as the sequence (P28335 with tags, fused parts or gaps with the stated changes limits assumed) above, with T100A counted along it
Excerpt: as §1, with “compared.” for “compared. Among the six mutations tested, five of them reduced the binding of (–)-crebanine (1) by more than 40% relative to binding to the wild-type receptor, displaying the importance of hydrophobic interactions.”
as §2

5-HT2C receptor [5] = target: T1, 5-HT2C receptor; remark: listed apart in the source
[6] = target: T4, 5-HT2C receptor A222^5.46F (Homo sapiens, UniProt P28335, A222F/DEL255-298/G251D/H250E/H252N/INS299[…]/L248D/M247A/M300L/T253W); test: CPM thermal stability assay, 5-HT2C mutant A222F; details: mutant A222^5.46F, n = 2
T4 construct: the N- and C-terminals were truncated by 39 and 65 residues, respectively; PreScission protease site + 10× His (C); made in house
T4 sequence (P28335 with tags, fused parts or gaps with the stated changes): as the sequence (P28335 with tags, fused parts or gaps with the stated changes limits assumed) above, with A183F counted along it
Excerpt: as §1, with “compared.” for “compared. Among the six mutations tested, five of them reduced the binding of (–)-crebanine (1) by more than 40% relative to binding to the wild-type receptor, displaying the importance of hydrophobic interactions.”
as §2

Q: Which “(–)-Crebanine/MS relative ligand binding” value (5-HT2C receptor [1]; WT receptor, n = 2, MS response of released ligand divided by total ligand in incubation sample) does the source give for COc1ccc2c(c1OC)C[C@@H]1c3c(cc4c(c3-2)OCO4)CCN1C [Compound 1, (–)-crebanine] here?
A: The value was 27.57%.

Q: What about the S/C (5-HT2C receptor [1]; ratio of MS response in 5-HT2C incubation sample versus control (hydroxycarboxylic acid receptor 2), 500 nmol/L protein, 250 nmol/L ligand, n = 4) of the same compound?
A: The S/C was 9.15 ± 1.43.

Q: And the “(–)-Crebanine/MS relative ligand binding” value ([2]; mutant G218^5.42A, n = 2)?
A: The value was 9.82%.

Q: And the “ligand-binding capacity reduction versus wild-type” value ([2]; mutation Gly218^5.42Ala)?
A: Its value is “over 60%”.

Q: What about the “(–)-Crebanine/CPM (Tm)” value ([3]; mutant G218^5.42A, n = 2) of the same compound?
A: Its value is 53.92 °C.

Q: And the “Tm value decrease versus wild-type” value ([3]; mutation Gly218^5.42Ala)?
A: The value was “over 6.0 °C”.

Q: What about the “(–)-Crebanine/CPM (Tm)” value [4] of the same compound?
A: The value was 54.63 °C.

Q: And the “thermal shift value (∆Tm)” value (5-HT2C receptor [5]; CPM assay, comparing to apo-protein)?
A: The value was 9.25 °C.

Q: And the “(–)-Crebanine/CPM (Tm)” value (5-HT2C receptor [5]; WT receptor, n = 2)?
A: Its value is 59.93 °C.

Q: And the “(–)-Crebanine/CPM (Tm)” value [6]?
A: The value was 55.70 °C.
